In series [1] the test system is RAW264.7. In words: Inhibition of LPS-induced nitric oxide production in mouse RAW264.7 cells at 7.5 uM measured after 20 hrs by griess assay relative to control. The note with it: RAW264.7, 20 h. The format is functional. Background: The Griess reaction detects nitrite, a stable product of nitric oxide.
Series [2] deals with RAW264.7. In words: Inhibition of LPS-induced nitric oxide production in mouse RAW264.7 cells measured after 20 hrs by griess assay. The format is functional, cell-based. As to conditions: RAW264.7, 20 h.
Series [3] concerns the target T1, Protein kinase C iota type (Homo sapiens) (UniProt P41743).
T1 sequence (whole entry): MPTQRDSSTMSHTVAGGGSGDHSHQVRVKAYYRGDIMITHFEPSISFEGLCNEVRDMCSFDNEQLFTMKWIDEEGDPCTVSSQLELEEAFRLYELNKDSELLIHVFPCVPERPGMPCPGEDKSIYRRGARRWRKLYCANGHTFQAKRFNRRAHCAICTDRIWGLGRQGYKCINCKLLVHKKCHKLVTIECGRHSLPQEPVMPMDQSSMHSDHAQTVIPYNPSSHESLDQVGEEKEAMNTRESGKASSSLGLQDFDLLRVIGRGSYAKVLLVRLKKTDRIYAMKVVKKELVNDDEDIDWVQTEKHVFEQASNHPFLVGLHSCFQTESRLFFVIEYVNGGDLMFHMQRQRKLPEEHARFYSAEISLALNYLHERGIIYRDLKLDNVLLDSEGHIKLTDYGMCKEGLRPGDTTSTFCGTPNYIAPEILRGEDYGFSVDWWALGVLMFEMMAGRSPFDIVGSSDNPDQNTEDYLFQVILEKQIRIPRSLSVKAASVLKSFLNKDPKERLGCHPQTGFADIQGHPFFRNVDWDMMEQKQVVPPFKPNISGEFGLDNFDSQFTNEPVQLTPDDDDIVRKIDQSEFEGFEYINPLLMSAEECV
In words: Inhibition of recombinant GST-fused PKCiota (unknown origin) expressed in HEK293 cells at 20 uM using myelin basic protein as substrate measured after 40 mins in presence of [gamma32P]ATP by phosphorimaging analysis relative to control.

The nature of series [4]: Cytotoxicity against mouse RAW264.7 cells assessed as live cells at 7.5 uM after 20 hrs by MTT assay relative to control. Format: cell-based. The note with it: read-out: Activity. (In general: Formazan colour is commonly taken as a measure of viable cells.)
Series [5] concerns the target T2, Protein kinase C zeta type (Homo sapiens, UniProt Q05513).
T2 sequence (Q05513 whole entry): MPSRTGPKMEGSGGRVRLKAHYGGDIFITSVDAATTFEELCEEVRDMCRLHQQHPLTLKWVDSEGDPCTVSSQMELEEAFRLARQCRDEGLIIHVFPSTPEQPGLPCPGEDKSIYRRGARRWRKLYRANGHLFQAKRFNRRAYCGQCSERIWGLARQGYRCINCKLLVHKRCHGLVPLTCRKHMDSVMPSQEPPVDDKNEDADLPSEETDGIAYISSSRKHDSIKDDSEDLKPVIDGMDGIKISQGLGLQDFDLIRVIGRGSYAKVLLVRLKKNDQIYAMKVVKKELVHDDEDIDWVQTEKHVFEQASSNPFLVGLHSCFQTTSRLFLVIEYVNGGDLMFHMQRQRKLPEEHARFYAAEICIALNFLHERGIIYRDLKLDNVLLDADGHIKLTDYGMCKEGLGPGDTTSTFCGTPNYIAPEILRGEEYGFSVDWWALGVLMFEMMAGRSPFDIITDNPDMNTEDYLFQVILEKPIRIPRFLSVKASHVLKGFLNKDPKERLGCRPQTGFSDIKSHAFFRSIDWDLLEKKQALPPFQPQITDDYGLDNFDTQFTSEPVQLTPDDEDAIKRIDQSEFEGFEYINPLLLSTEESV
The series is described as follows: Inhibition of recombinant GST-fused PKCzeta (unknown origin) expressed in HEK293 cells using myelin basic protein as substrate measured after 40 mins in presence of [gamma32P]ATP by phosphorimaging analysis.

For series [6], the target named is Protein kinase C zeta type (Homo sapiens, UniProt Q05513, V297L). In words: Inhibition of recombinant GST-fused PKCzeta Val297Leu mutant (unknown origin) expressed in HEK293 cells using myelin basic protein as substrate measured after 40 mins in presence of [gamma32P]ATP by phosphorimaging analysis.
Sequence of Protein kinase C zeta type (Homo sapiens, UniProt Q05513, V297L) (Q05513 whole entry V297L, the tested form may be a part): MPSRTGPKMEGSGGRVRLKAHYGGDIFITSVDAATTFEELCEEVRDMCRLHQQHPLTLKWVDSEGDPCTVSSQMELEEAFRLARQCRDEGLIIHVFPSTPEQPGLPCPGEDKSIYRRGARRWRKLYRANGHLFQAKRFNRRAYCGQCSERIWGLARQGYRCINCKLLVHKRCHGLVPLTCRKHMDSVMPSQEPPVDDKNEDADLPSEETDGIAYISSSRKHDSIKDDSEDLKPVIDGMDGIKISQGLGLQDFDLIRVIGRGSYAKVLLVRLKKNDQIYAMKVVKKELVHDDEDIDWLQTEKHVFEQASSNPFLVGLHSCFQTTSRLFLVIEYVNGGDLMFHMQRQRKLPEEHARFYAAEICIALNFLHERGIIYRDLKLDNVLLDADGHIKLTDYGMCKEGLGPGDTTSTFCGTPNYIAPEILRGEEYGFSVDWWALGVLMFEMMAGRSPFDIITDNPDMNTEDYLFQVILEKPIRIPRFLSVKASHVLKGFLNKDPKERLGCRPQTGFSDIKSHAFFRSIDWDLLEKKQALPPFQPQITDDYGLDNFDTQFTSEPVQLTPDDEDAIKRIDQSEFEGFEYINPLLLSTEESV
For series [7], the species on record is Homo sapiens. The series is described as follows: Selectivity ratio of IC50 for recombinant GST-fused PKCzeta Val297Leu mutant (unknown origin) expressed in HEK293 cells to IC50 for recombinant GST-fused PKCzeta (unknown origin) expressed in HEK293 cells. Format: cell-based.
Series [8] deals with Protein kinase C beta type (Homo sapiens) (UniProt P05771). In words: Inhibition of PKCbeta2 (unknown origin) at 10 uM.
Sequence of Protein kinase C beta type (Homo sapiens) (P05771 2-671 limits assumed): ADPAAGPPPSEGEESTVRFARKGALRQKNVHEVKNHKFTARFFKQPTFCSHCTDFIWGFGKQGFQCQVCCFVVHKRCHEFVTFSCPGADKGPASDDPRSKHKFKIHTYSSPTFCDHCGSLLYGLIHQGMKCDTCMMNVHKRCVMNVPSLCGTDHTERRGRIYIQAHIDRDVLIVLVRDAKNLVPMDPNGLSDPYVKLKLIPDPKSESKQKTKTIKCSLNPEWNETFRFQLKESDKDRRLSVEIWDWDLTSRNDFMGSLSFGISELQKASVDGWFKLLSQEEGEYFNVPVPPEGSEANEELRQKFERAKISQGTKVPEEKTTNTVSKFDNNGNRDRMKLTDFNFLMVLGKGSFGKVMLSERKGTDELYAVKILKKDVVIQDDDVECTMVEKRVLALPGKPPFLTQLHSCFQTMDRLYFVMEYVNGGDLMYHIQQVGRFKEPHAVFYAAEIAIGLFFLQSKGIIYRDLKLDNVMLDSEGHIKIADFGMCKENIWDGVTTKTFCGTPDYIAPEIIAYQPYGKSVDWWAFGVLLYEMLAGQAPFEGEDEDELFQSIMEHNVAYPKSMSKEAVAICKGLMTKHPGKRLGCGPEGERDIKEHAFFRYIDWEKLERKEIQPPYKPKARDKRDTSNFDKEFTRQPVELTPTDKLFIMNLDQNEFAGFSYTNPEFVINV
Series [9] deals with Protein kinase C eta type (Homo sapiens) (UniProt P24723). In words: Inhibition of PKCeta (unknown origin) at 10 uM.
Sequence of Protein kinase C eta type (Homo sapiens) (P24723 whole entry): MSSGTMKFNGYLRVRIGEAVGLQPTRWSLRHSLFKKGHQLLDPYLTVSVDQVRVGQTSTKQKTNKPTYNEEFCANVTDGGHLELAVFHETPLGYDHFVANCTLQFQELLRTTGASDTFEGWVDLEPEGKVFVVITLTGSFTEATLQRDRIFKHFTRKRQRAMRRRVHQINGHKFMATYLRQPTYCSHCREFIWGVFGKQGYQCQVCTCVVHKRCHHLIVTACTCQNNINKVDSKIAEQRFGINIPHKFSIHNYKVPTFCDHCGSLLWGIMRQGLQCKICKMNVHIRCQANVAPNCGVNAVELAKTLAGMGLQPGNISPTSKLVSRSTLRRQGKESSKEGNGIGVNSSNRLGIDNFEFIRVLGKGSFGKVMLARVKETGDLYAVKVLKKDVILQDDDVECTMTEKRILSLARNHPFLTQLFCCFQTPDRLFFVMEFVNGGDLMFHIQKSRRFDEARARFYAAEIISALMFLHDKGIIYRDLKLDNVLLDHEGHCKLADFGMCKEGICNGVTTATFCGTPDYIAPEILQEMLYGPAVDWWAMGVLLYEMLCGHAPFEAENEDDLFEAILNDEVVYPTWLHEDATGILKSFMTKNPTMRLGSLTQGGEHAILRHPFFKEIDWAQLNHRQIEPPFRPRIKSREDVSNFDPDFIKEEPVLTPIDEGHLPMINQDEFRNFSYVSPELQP
Series [10] has as its target Protein kinase C alpha type (Homo sapiens) (UniProt P17252). In words: Inhibition of PKCalpha (unknown origin) at 10 uM.
Series [11] concerns the target Serine/threonine-protein kinase N1 (Homo sapiens) (UniProt Q16512). The series is described as follows: Inhibition of PKN1 (unknown origin) at 10 uM.
Series [12] has as its target T3, 3-phosphoinositide-dependent protein kinase 1 (Homo sapiens) (UniProt O15530).
T3 sequence (whole entry): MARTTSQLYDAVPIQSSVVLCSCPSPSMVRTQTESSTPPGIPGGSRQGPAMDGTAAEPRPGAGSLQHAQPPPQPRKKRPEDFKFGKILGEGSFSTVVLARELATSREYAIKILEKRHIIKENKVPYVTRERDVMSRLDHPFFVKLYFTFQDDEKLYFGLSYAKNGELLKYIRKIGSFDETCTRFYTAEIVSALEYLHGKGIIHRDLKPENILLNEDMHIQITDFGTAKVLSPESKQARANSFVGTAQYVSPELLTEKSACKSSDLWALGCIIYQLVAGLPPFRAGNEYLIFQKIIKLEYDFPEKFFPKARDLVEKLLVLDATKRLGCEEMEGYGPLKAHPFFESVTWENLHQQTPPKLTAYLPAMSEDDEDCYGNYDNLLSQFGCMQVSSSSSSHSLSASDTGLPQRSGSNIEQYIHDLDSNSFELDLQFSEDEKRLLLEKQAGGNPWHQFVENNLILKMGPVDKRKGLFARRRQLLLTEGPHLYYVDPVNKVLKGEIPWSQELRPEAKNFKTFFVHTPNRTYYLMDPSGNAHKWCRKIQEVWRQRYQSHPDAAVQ
In words: Inhibition of PDK1 (unknown origin) at 10 uM.

The target of series [13] is Protein kinase C delta type (Homo sapiens) (UniProt Q05655). In words: Inhibition of PKCdelta (unknown origin) at 10 uM.
Sequence of Protein kinase C delta type (Homo sapiens) (Q05655 whole entry, looked up): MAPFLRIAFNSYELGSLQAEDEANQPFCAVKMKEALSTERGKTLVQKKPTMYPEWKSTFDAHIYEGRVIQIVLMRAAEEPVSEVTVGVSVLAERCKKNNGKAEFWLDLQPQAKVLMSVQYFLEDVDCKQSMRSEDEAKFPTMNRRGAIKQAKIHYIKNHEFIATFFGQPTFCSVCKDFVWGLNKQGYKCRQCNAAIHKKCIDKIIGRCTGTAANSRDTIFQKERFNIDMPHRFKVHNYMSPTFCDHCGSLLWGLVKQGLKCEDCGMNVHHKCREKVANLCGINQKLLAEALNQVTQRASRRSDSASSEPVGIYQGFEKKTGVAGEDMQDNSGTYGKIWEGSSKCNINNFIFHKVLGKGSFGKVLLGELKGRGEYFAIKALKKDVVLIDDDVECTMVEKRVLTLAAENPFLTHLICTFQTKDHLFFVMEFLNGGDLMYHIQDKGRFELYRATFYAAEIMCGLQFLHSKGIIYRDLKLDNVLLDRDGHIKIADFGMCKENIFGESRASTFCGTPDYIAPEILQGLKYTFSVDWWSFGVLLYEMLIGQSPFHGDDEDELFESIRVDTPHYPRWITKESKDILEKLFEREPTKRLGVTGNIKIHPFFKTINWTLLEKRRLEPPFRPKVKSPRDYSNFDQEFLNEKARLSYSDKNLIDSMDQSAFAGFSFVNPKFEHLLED
For series [14], the target named is T4, Protein kinase C epsilon type (Homo sapiens) (UniProt Q02156).
T4 sequence (whole entry): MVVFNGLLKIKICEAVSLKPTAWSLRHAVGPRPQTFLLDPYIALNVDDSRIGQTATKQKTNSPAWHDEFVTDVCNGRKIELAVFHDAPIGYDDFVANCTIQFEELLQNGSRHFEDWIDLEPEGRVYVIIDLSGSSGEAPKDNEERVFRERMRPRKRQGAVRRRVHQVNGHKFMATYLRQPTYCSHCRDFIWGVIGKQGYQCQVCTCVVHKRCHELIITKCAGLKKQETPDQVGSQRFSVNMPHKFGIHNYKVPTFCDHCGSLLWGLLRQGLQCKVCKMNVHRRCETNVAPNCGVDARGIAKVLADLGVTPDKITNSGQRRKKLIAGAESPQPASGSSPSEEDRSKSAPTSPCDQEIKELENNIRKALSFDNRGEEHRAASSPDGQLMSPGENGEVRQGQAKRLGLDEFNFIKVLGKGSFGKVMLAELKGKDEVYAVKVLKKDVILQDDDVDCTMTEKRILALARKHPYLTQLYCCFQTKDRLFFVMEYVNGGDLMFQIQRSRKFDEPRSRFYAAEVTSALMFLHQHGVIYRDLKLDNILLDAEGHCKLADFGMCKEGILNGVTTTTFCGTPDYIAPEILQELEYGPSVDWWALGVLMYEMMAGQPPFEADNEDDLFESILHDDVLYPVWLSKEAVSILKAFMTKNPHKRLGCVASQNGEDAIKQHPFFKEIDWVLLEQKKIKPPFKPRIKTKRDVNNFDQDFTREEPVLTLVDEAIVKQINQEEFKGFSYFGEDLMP
The series is described as follows: Inhibition of PKCepsilon (unknown origin) at 10 uM.

Series [15] addresses Protein kinase C gamma type (Homo sapiens) (UniProt P05129). In words: Inhibition of PKCgamma (unknown origin) at 10 uM.
For series [16], the target named is Protein kinase C beta type (Homo sapiens) (UniProt P05771). The series is described as follows: Inhibition of PKCbeta1 (unknown origin) at 10 uM.
Series [17] addresses Protein kinase C theta type (Homo sapiens) (UniProt Q04759). The series is described as follows: Inhibition of PKCtheta (unknown origin) at 10 uM.

Structures are written as SMILES. The source made the active and inactive calls. The rule behind the calls is not given here.

The text below walks through data of ChEMBL document CHEMBL4257514, “Design and synthesis of novel 1,3,5-triphenyl pyrazolines as potential anti-inflammatory agents through allosteric inhibition of protein kinase Czeta (PKCζ)” (Medchemcomm, 2018).

By inhibition is commonly meant the share of the control response that was lost under treatment. For orientation: IC50 means the concentration needed to halve the response being measured.

Sequence of Serine/threonine-protein kinase N1 (Homo sapiens) (Q16512 2-942 limits assumed): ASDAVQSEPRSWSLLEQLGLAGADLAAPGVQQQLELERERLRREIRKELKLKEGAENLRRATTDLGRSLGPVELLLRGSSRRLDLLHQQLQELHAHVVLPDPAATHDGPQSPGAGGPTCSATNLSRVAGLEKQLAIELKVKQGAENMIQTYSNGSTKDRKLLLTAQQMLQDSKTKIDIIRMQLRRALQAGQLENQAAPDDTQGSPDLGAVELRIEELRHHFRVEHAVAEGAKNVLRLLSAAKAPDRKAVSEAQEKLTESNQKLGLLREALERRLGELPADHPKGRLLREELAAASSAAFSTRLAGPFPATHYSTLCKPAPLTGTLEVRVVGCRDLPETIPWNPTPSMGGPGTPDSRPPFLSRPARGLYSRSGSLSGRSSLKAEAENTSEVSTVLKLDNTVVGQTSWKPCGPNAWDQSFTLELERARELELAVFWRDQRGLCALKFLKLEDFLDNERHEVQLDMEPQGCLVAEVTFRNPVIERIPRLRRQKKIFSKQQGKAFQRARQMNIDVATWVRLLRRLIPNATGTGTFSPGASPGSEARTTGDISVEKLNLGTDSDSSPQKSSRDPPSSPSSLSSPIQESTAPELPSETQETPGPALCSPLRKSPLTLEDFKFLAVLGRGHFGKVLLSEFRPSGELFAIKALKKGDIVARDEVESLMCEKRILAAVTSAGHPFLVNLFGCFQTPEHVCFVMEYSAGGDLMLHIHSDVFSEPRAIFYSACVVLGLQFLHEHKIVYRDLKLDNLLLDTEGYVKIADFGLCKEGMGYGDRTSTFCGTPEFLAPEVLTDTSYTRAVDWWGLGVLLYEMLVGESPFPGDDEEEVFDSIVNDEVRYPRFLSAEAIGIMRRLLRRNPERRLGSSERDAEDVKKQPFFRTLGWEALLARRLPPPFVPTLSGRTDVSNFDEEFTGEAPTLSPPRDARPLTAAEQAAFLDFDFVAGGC

In series [1], `Oc1ccc(C2CC(c3ccccc3O)=NN2c2cccc(Cl)c2)cc1F` (stereo unspecified) came in with an inhibition at 7.5 µM of 86%. In series [2], this compound displayed an IC50 of 2.9 µM.

On to `Oc1cccc(C2=NN(c3ccc(Cl)cc3)C(c3ccc(Cl)cc3)C2)c1` (stereo unspecified), for which the inhibition in series [3] was determined as 9.3%. Moreover, in series [4], the viability at 20 h, 7.5 µM stood at 91%. The compound further displayed an inhibition at 7.5 µM in series [1] of 45%. For the same compound, the IC50 in [5] stood at 6.5 µM.

On to `COc1cc(/C=C/C(=O)CC(=O)/C=C/c2ccc(O)c(OC)c2)ccc1O` [CURCUMIN], for which, in [1], at 7.5 µM the inhibition was 97%. This compound showed an IC50 in [2] of 0.8 µM.

For `Oc1ccc(C2=NN(c3ccc(Cl)cc3)C(c3cccc(Cl)c3)C2)cc1` (stereo unspecified), in series [3], the inhibition came out at 18.6%. Moreover, in [4], the viability at 20 h, 7.5 µM was found to be 96%. At 7.5 µM the inhibition in series [1] was 34%. Further, the IC50 in series [5] is < 0.1 µM.

In turn, `Oc1ccc(C2=NN(c3cccc(Cl)c3)C(c3ccc(O)c(F)c3)C2)c(O)c1` (stereo unspecified) gave an inhibition at 7.5 µM in series [1] of 87%. For the same compound, the figures for the IC50 in [2] and in series [5] were 3.1 µM and < 0.1 µM, respectively.

For the compound `Oc1ccc(C2=NN(c3cccc(Cl)c3)C(c3ccc(Cl)cc3)C2)cc1` (stereo unspecified), the inhibition in series [3] came to 22.8%. In addition, the viability at 20 h, 7.5 µM in series [4] amounted to 91%. The inhibition at 7.5 µM in [1] was determined as 42.8%. The IC50 in series [5] was < 0.1 µM.

For the compound `Oc1ccc(C2=NN(c3ccc(Cl)cc3)C(c3ccc(Cl)cc3)C2)c(O)c1` (stereo unspecified), the inhibition in [3] is 14.8%. Moreover, the IC50 in [6] came out at 9.7 µM; in series [5], 4.3 µM. Moreover, in [7], the Ratio IC50 is 2.2. Further, the viability at 20 h, 7.5 µM in [4] was 88%. Also, the inhibition at 7.5 µM in series [1] worked out at 31.4%.

For `Oc1ccc(C2=NN(c3ccc(Cl)cc3)C(c3ccc(Cl)cc3)C2)cc1O` (stereo unspecified), the inhibition result in series [8], in [9], in series [10], in series [13], in series [15] and in series [16] was “inactive” each time. Also, the inhibition result in series [17] is “inactive”. Besides, the inhibition was determined as 27.6% in [3], 11% in series [11], 1% in [12] and 11% in series [14]. In addition, the viability at 20 h, 7.5 µM in series [4] was 94%. This compound also gave an inhibition at 7.5 µM in series [1] of 100%. Also, half-maximal inhibition in series [2] (IC50) was put at 0.3 µM.

In the case of `Oc1ccc(C2=NN(c3ccc(Cl)cc3)C(c3ccc(Cl)cc3)C2)cc1` (stereo unspecified), in series [3], the inhibition worked out at 24.9%. Moreover, the viability at 20 h, 7.5 µM in [4] came out at 99%. This compound registered an inhibition at 7.5 µM in [1] of 62.4%.

For `Oc1ccc(C2=NN(c3ccccc3Cl)C(c3ccccc3Cl)C2)cc1` (stereo unspecified), the inhibition in series [3] came out at 30.5%. For the same compound, the viability at 20 h, 7.5 µM in series [4] turned out to be 92%. Further, the inhibition at 7.5 µM in series [1] stood at 34%.

With `Oc1ccc(C2=NN(c3cccc(Cl)c3)C(c3cccc(Cl)c3)C2)cc1` (stereo unspecified), the inhibition in [3] worked out at 29%. For the same compound, the half-maximal inhibitory concentration (IC50) in [6] was 4.1 µM; in [5], 0.4 µM. For the same compound, in series [7], the Ratio IC50 is 10.2. Moreover, in series [4], the viability at 20 h, 7.5 µM came out at 86%. In addition, at 7.5 µM the inhibition in series [1] was 31.5%.
